Patent US20230372498A1, “PLK1 SELECTIVE DEGRADATION INDUCING COMPOUND” (UPPTHERA, priority 2020, published 2023)

Biological target: T1, PLK1 (Homo sapiens, UniProt P53350)
T1 construct: endogenous in cells; host or cells: HeLa
Test: PLK1 protein degradation in HeLa cells, Western blotting (PLK1/GAPDH ratio)
Assay type: cell-based
Settings: 6 hours compound incubation; for DC50: measured only if the grade of Dmax is A or B; for Dmax: thymidine block and release, 10 points three-fold from 3 μM, PLK1 to GAPDH ratio, read-out: Dmax
Method in brief: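 PLK1 level measured by Western blot as PLK1/GAPDH in HeLa lysates (15 μg protein per lane). Cells were blocked with 2 mM thymidine 24 h, released 4 h, and exposed 6 h to compound, 10 concentrations, 3-fold steps, top 3 μM.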

T1 sequence (P53350 whole entry): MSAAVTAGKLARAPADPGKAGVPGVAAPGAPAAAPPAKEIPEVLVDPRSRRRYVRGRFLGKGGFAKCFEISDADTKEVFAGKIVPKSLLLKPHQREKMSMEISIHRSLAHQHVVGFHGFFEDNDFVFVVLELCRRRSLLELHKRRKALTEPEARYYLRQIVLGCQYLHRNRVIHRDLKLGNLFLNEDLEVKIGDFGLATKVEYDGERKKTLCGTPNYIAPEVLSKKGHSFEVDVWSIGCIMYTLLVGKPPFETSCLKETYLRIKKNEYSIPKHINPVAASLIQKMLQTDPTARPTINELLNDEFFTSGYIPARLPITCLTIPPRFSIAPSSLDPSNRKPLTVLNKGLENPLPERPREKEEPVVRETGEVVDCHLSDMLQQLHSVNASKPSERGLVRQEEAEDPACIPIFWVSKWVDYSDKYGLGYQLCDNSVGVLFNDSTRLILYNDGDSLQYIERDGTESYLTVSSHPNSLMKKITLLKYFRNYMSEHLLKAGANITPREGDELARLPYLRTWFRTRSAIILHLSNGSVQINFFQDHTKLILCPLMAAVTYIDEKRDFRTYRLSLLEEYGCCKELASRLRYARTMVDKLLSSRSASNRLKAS

| DC50 [nM] | Dmax [%] | Structure (SMILES) |
| --- | --- | --- |
| ≤ 50 | ≥ 80 | COc1cc(C(=O)NC2CCN(C(=O)CCOCCNc3cccc4c3C(=O)N(C3CCC(=O)NC3=O)C4=O)CC2)c(F)cc1Nc1ncc2c(n1)N(C1CCCC1)CC(F)(F)C(=O)N2C (stereo not drawn) [Compound 32, 4-((9-cyclopentyl-7,7-difluoro-5-methyl-6-oxo-6,7,8,9-tetrahydro-5H-pyrimido[4,5-b][1,4]diazepin-2-yl)amino)-N-(1-(3-(2-((2-(2,6-dioxopiperidin-3-yl)-1,3-dioxoisoindolin-4-yl)amino)ethoxy)propanoyl)piperidin-4-yl)-2-fluoro-5-methoxybenzamide] |
| ≤ 50 | ≥ 80 | COc1cc(C(=O)NC2CCN(C(=O)COCCOCCNc3cccc4c3C(=O)N(C3CCC(=O)NC3=O)C4=O)CC2)c(F)cc1Nc1ncc2c(n1)N(C1CCCC1)CC(F)(F)C(=O)N2C (stereo not drawn) [Compound 33, 4-((9-cyclopentyl-7,7-difluoro-5-methyl-6-oxo-6,7,8,9-tetrahydro-5H-pyrimido[4,5-b][1,4]diazepin-2-yl)amino)-N-(1-(2-(2-(2-((2-(2,6-dioxopiperidin-3-yl)-1,3-dioxoisoindolin-4-yl)amino)ethoxy)ethoxy)acetyl)piperidin-4-yl)-2-fluoro-5-methoxybenzamide] |
| ≤ 50 | ≥ 80 | COc1cc(C(=O)NC2CCN(C(=O)COCCOCCOCCOCCNc3cccc4c3C(=O)N(C3CCC(=O)NC3=O)C4=O)CC2)c(F)cc1Nc1ncc2c(n1)N(C1CCCC1)CC(F)(F)C(=O)N2C (stereo not drawn) [Compound 34, 4-((9-cyclopentyl-7,7-difluoro-5-methyl-6-oxo-6,7,8,9-tetrahydro-5H-pyrimido[4,5-b][1,4]diazepin-2-yl)amino)-N-(1-(14-((2-(2,6-dioxopiperidin-3-yl)-1,3-dioxoisoindolin-4-yl)amino)-3,6,9,12-tetraoxatetradecanoyl)piperidin-4-yl)-2-fluoro-5-methoxybenzamide] |
| ≤ 50 | ≥ 80 | COc1cc(C(=O)NC2CCN(CC(=O)NCCOCCNc3cccc4c3C(=O)N(C3CCC(=O)NC3=O)C4=O)CC2)c(F)cc1Nc1ncc2c(n1)N(C1CCCC1)CC(F)(F)C(=O)N2C (stereo not drawn) [Compound 35, 4-((9-cyclopentyl-7,7-difluoro-5-methyl-6-oxo-6,7,8,9-tetrahydro-5H-pyrimido[4,5-b][1,4]diazepin-2-yl)amino)-N-(1-(2-((2-(2-((2-(2,6-dioxopiperidin-3-yl)-1,3-dioxoisoindolin-4-yl)amino)ethoxy)ethyl)amino)-2-oxoethyl)piperidin-4-yl)-2-fluoro-5-methoxybenzamide] |
| ≤ 50 | ≥ 80 | COc1cc(C(=O)NC2CCN(CC(=O)NCCOCCOCCOCCNc3cccc4c3C(=O)N(C3CCC(=O)NC3=O)C4=O)CC2)c(F)cc1Nc1ncc2c(n1)N(C1CCCC1)CC(F)(F)C(=O)N2C (stereo not drawn) [Compound 36, 4-((9-cyclopentyl-7,7-difluoro-5-methyl-6-oxo-6,7,8,9-tetrahydro-5H-pyrimido[4,5-b][1,4]diazepin-2-yl)amino)-N-(1-(14-((2-(2,6-dioxopiperidin-3-yl)-1,3-dioxoisoindolin-4-yl)amino)-2-oxo-6,9,12-trioxa-3-azatetradecyl)piperidin-4-yl)-2-fluoro-5-methoxybenzamide] |
| ≤ 500 | 60 to 80 | COc1cc(C(=O)NC2CCN(CCCC(=O)Nc3cccc4c3C(=O)N(C3CCC(=O)NC3=O)C4=O)CC2)c(F)cc1Nc1ncc2c(n1)N(C1CCCC1)CC(F)(F)C(=O)N2C (stereo not drawn) [Compound 37, 4-((9-cyclopentyl-7,7-difluoro-5-methyl-6-oxo-6,7,8,9-tetrahydro-5H-pyrimido[4,5-b][1,4]diazepin-2-yl)amino)-N-(1-(4-((2-(2,6-dioxopiperidin-3-yl)-1,3-dioxoisoindolin-4-yl)amino)-4-oxobutyl)piperidin-4-yl)-2-fluoro-5-methoxybenzamide] |
| ≤ 500 | 60 to 80 | COc1cc(C(=O)NC2CCN(CCCCCCCC(=O)Nc3cccc4c3C(=O)N(C3CCC(=O)NC3=O)C4=O)CC2)c(F)cc1Nc1ncc2c(n1)N(C1CCCC1)CC(F)(F)C(=O)N2C (stereo not drawn) [Compound 38, 4-((9-cyclopentyl-7,7-difluoro-5-methyl-6-oxo-6,7,8,9-tetrahydro-5H-pyrimido[4,5-b][1,4]diazepin-2-yl)amino)-N-(1-(8-((2-(2,6-dioxopiperidin-3-yl)-1,3-dioxoisoindolin-4-yl)amino)-8-oxooctyl)piperidin-4-yl)-2-fluoro-5-methoxybenzamide] |
| ≤ 50 | ≥ 80 | COc1cc(C(=O)NC2CCN(C(=O)CCCNc3cccc4c3C(=O)N(C3CCC(=O)NC3=O)C4=O)CC2)c(F)cc1Nc1ncc2c(n1)N(C1CCCC1)CC(F)(F)C(=O)N2C (stereo not drawn) [Compound 39, 4-((9-cyclopentyl-7,7-difluoro-5-methyl-6-oxo-6,7,8,9-tetrahydro-5H-pyrimido[4,5-b][1,4]diazepin-2-yl)amino)-N-(1-(4-((2-(2,6-dioxopiperidin-3-yl)-1,3-dioxoisoindolin-4-yl)amino)butanoyl)piperidin-4-yl)-2-fluoro-5-methoxybenzamide] |
| ≤ 500 | 60 to 80 | COc1cc(C(=O)NC2CCN(Cc3ccc(OCCNc4cccc5c4C(=O)N(C4CCC(=O)NC4=O)C5=O)cc3)CC2)c(F)cc1Nc1ncc2c(n1)N(C1CCCC1)CC(F)(F)C(=O)N2C (stereo not drawn) [Compound 40, 4-((9-cyclopentyl-7,7-difluoro-5-methyl-6-oxo-6,7,8,9-tetrahydro-5H-pyrimido[4,5-b][1,4]diazepin-2-yl)amino)-N-(1-(4-(2-((2-(2,6-dioxopiperidin-3-yl)-1,3-dioxoisoindolin-4-yl)amino)ethoxy)benzyl)piperidin-4-yl)-2-fluoro-5-methoxybenzamide] |
| ≤ 50 | ≥ 80 | COc1cc(C(=O)NC2CCN(Cc3ccc(OCCOCCOCCNc4cccc5c4C(=O)N(C4CCC(=O)NC4=O)C5=O)cc3)CC2)c(F)cc1Nc1ncc2c(n1)N(C1CCCC1)CC(F)(F)C(=O)N2C (stereo not drawn) [Compound 41, 4-((9-cyclopentyl-7,7-difluoro-5-methyl-6-oxo-6,7,8,9-tetrahydro-5H-pyrimido[4,5-b][1,4]diazepin-2-yl)amino)-N-(1-(4-(2-(2-(2-((2-(2,6-dioxopiperidin-3-yl)-1,3-dioxoisoindolin-4-yl)amino)ethoxy)ethoxy)ethoxy)benzyl)piperidin-4-yl)-2-fluoro-5-methoxybenzamide] |
| > 500 | 60 to 80 | COc1cc(C(=O)NC2CCN(CCc3ccc(CC(=O)Nc4cccc5c4C(=O)N(C4CCC(=O)NC4=O)C5=O)cc3)CC2)c(F)cc1Nc1ncc2c(n1)N(C1CCCC1)CC(F)(F)C(=O)N2C (stereo not drawn) [Compound 42, 4-((9-cyclopentyl-7,7-difluoro-5-methyl-6-oxo-6,7,8,9-tetrahydro-5H-pyrimido[4,5-b][1,4]diazepin-2-yl)amino)-N-(1-(4-(2-((2-(2,6-dioxopiperidin-3-yl)-1,3-dioxoisoindolin-4-yl)amino)-2-oxoethyl)phenethyl)piperidin-4-yl)-2-fluoro-5-methoxybenzamide] |
| ≤ 50 | ≥ 80 | COc1cc(C(=O)NC2CCN(CCCn3cnc(CNc4cccc5c4C(=O)N(C4CCC(=O)NC4=O)C5=O)c3)CC2)c(F)cc1Nc1ncc2c(n1)N(C1CCCC1)CC(F)(F)C(=O)N2C (stereo not drawn) [Compound 43] |
| ≤ 50 | ≥ 80 | COc1cc(C(=O)NC2CCN(Cc3cn(CCOCCNc4cccc5c4C(=O)N(C4CCC(=O)NC4=O)C5=O)nn3)CC2)c(F)cc1Nc1ncc2c(n1)N(C1CCCC1)CC(F)(F)C(=O)N2C (stereo not drawn) [Compound 44, 4-((9-cyclopentyl-7,7-difluoro-5-methyl-6-oxo-6,7,8,9-tetrahydro-5H-pyrimido[4,5-b][1,4]diazepin-2-yl)amino)-N-(1-((1-(2-(2-((2-(2,6-dioxopiperidin-3-yl)-1,3-dioxoisoindolin-4-yl)amino)ethoxy)ethyl)-1H-1,2,3-triazol-4-yl)methyl)piperidin-4-yl)-2-fluoro-5-methoxybenzamide] |
| ≤ 50 | ≥ 80 | COc1cc(C(=O)NC2CCN(Cc3cn(CCOCCOCCOCCNc4cccc5c4C(=O)N(C4CCC(=O)NC4=O)C5=O)nn3)CC2)c(F)cc1Nc1ncc2c(n1)N(C1CCCC1)CC(F)(F)C(=O)N2C (stereo not drawn) [Compound 45, 4-((9-cyclopentyl-7,7-difluoro-5-methyl-6-oxo-6,7,8,9-tetrahydro-5H-pyrimido[4,5-b][1,4]diazepin-2-yl)amino)-N-(1-((1-(2-(2-(2-(2-((2-(2,6-dioxopiperidin-3-yl)-1,3-dioxoisoindolin-4-yl)amino)ethoxy)ethoxy)ethoxy)ethyl)-1H-1,2,3-triazol-4-yl)methyl)piperidin-4-yl)-2-fluoro-5-methoxybenzamide] |
|  | < 60 | COc1cc(C(=O)NC2CCN(Cc3cn(CCCC(=O)Nc4cccc5c4C(=O)N(C4CCC(=O)NC4=O)C5=O)nn3)CC2)c(F)cc1Nc1ncc2c(n1)N(C1CCCC1)CC(F)(F)C(=O)N2C (stereo not drawn) [Compound 46, 4-((9-cyclopentyl-7,7-difluoro-5-methyl-6-oxo-6,7,8,9-tetrahydro-5H-pyrimido[4,5-b][1,4]diazepin-2-yl)amino)-N-(1-((1-(4-((2-(2,6-dioxopiperidin-3-yl)-1,3-dioxoisoindolin-4-yl)amino)-4-oxobutyl)-1H-1,2,3-triazol-4-yl)methyl)piperidin-4-yl)-2-fluoro-5-methoxybenzamide] |
|  | < 60 | COc1cc(C(=O)NC2CCN(Cc3cn(CCNC(=O)CNc4cccc5c4C(=O)N(C4CCC(=O)NC4=O)C5=O)nn3)CC2)c(F)cc1Nc1ncc2c(n1)N(C1CCCC1)CC(F)(F)C(=O)N2C (stereo not drawn) [Compound 47, 4-((9-cyclopentyl-7,7-difluoro-5-methyl-6-oxo-6,7,8,9-tetrahydro-5H-pyrimido[4,5-b][1,4]diazepin-2-yl)amino)-N-(1-((1-(2-(2-((2-(2,6-dioxopiperidin-3-yl)-1,3-dioxoisoindolin-4-yl)amino)acetamido)ethyl)-1H-1,2,3-triazol-4-yl)methyl)piperidin-4-yl)-2-fluoro-5-methoxybenzamide] |
